Drawing on US20250154146A1, “PROTEIN DEGRADERS DEVELOPED ON BASIS OF BCL-2 FAMILY PROTEIN LIGAND COMPOUNDS AND USE THEREOF” (ShanghaiTech University, priority 2022, published 2025), this text covers IC50 for three molecules.

What all share (assay type): cell-based
The test system of one test is RS4;11 cells. The test is described as follows: Thiazolyl blue cell proliferation assay in RS4;11 cells. The conditions noted are these: Homo sapiens, RS4;11 acute lymphoblastic leukemia cells, 48 hours, read-out: IC50 (nM) for inhibiting the proliferation of RS4;11 cells. The text has this:
(§1) The cell lines RS4;11 (human acute lymphocytic leukemia cells), Molt-4 cells (human acute lymphocytic leukemia cells), MV4;11 (human myeloid monocytic leukemia cells), and Light II cells were commercially available or purchased from ATCC (American Type Culture Collection) and routinely cultured according to instructions.
1) Study on the proliferation inhibition effects induced by the compounds of the present disclosure designed based on ABT199/263 against BCL-XL-dependent RS4;11 cells:
(§2) The specific steps were as follows: RS4;11 cells were seeded at a density of 3×10^4 cells/well in 90 μL of serum-containing RPMI-1640 culture medium. DT2216 and the compounds of the present disclosure were added to the cell suspension at corresponding concentration gradients. DT2216 and DMSO were used as positive and vehicle control, respectively. The positive control and negative control were treated with the same treatment method as the compounds of the present disclosure. After treating the cells with the compounds of the present disclosure for 48 hours, thiazole blue solution (5 mg/mL) was added at 10 μL/well to the cell suspension, followed by incubation for 3 hours at 37° C. in an incubator with 5% CO2. Then, triple solution (0.1 g/mL SDS, 5% isopropyl alcohol, 10 mM hydrochloric acid) was added, followed by incubation for 4-6 hours at 37° C. in an incubator with 5% CO2. After confirming that all the crystal violets were dissolved under inverted biological microscopy, the absorbance was measured at 490 nm using an Epoch microplate reader (Biotek Corporation). The growth inhibition of the compounds of the present disclosure on the cells was plotted by GraphPad Prism 8 software, and the IC50 values of the compounds of the present disclosure were calculated therefrom. The experiment had 3 replicates per group and was repeated at least three times.
We conducted dose-dependent experiments on the designed and synthesized compounds of the present disclosure in RS4;11 cells, which are highly sensitive to BCL-XL inhibitors. The cells were treated with 7 different concentrations (starting at the highest concentration of 1000 nM or 100 nM; 10-fold serial dilutions) of the compounds for 48 hours, and then tested using the thiazolyl blue cell proliferation assay.

For a further test, the system named is MV4;11 cells. In words: Thiazolyl blue cell proliferation assay in MV4;11 cells. Conditions: Homo sapiens, MV4;11 myeloid monocytic leukemia cells, 48 hours, read-out: IC50 (nM) for inhibiting the proliferation of MV4;11 cells.
Description: as §1
2) Study on the proliferation inhibition effects induced by the compounds of the present disclosure designed based on ABT199/263 against BCL-XL-dependent MV4;11 cells:
as §2, with “MV4;11” for “RS4;11”, “2×10^4” for “3×10^4”, “IMDM” for “RPMI-1640”, “µL/well” for “μL/well”

The next test concerns Molt-4 cells. The test is described as follows: Thiazolyl blue cell proliferation assay in Molt-4 cells. Conditions: Homo sapiens, Molt-4 acute lymphocytic leukemia cells, 72 hours, read-out: IC50 (nM) for inhibiting the proliferation of Molt-4 cells. In short, it runs like this:
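BCL-XL-dependent Molt-4 cells at 2×10^4/well in serum-containing RPMI 1640 were exposed to compound concentration gradients for 72 h. Thiazolyl blue (MTT) was added for 3 h at 37° C, solubilised in SDS/isopropanol/HCl, and read at 490 nm. IC50 comes from growth-inhibition curves, triplicate, repeated ≥3 times.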

In test [1] the test system is Hedgehog (Hh) signaling pathway. The test is described as follows: Dual-luciferase reporter assay of Hedgehog activity in Light II cells. The conditions noted are these: SAG stimulation, 36 h, dual-luciferase assay reporter kit, read-out: IC50 (nM) in Light II cells (inhibiting Hedgehog activity). Here is the method:
Determination of the IC50 Values of Compounds Inhibiting Hedgehog Activity—Dual-Luciferase Reporter Assay:
Light II cells were NIH3T3 cell lines that stably express the Gli-luciferase and TK-renilla reporters. They were cultured with DMEM medium containing 10% (v/v) fetal bovine serum (FBS), 0.4 mg/ml G418, 0.15 mg/ml bleomycin (Zeocin), and penicillin/streptomycin at 37° C. in an incubator with 5% CO2. Light II cells in the logarithmic growth phase were seeded at a density of 2.5×10^4 cells/well in a 96-well plate. After 24h incubation, the cells were subjected to treatment with SAG with or without different concentrations of the compounds of the present disclosure for 36 h. After that, the Hedgehog activity was measured using the dual fluorescence reporter kit according to its instructions. The experiment had 3 replicates per group and was repeated at least three times.

On to `C[C@@H]1CN([C@H]2CC[C@@H](CNc3ccc(S(=O)(=O)NC(=O)c4ccc(N5CCN(CC6=C(c7ccc(Cl)cc7)CC(C)(C)CC6)CC5)cc4Oc4cnc5[nH]ccc5c4)cc3[N+](=O)[O-])CC2)CCN1Cc1ccc2c(c1)CN(C1CCC(=O)NC1=O)C2=O` (stereo partly drawn) [BCL-03167, 2-((1H-pyrrolo[2,3-b]pyridin-5-yl)oxy)-4-(4-((4′-chloro-5,5-dimethyl-3,4,5,6-tetrahydro-[1,1′-biphenyl]-2-yl)methyl)piperazin-1-yl)-N-((4-((((cis)-4-((3R)-4-((2-(2,6-dioxopiperidin-3-yl)-1-oxoisoindolin-5-yl)methyl)-3-methylpiperazin-1-yl)cyclohexyl)methyl)amino)-3-nitrophenyl)sulfonyl)benzamide], for which the IC50 with RS4;11 cells was < 20 nM; in the test with MV4;11 cells, < 20 nM; in the test on Molt-4 cells it was < 10 nM; in test [1], < 10 nM.

Regarding `C[C@H]1CN([C@H]2CC[C@@H](CNc3ccc(S(=O)(=O)NC(=O)c4ccc(N5CCN(CC6=C(c7ccc(Cl)cc7)CC(C)(C)CC6)CC5)cc4Oc4cnc5[nH]ccc5c4)cc3[N+](=O)[O-])CC2)CCN1Cc1ccc2c(c1)CN(C1CCC(=O)NC1=O)C2=O` (stereo partly drawn) [BCL-03165, 2-((1H-pyrrolo[2,3-b]pyridin-5-yl)oxy)-4-(4-((4′-chloro-5,5-dimethyl-3,4,5,6-tetrahydro-[1,1′-biphenyl]-2-yl)methyl)piperazin-1-yl)-N-((4-((((cis)-4-((3S)-4-((2-(2,6-dioxopiperidin-3-yl)-1-oxoisoindolin-5-yl)methyl)-3-methylpiperazin-1-yl)cyclohexyl)methyl)amino)-3-nitrophenyl)sulfonyl)benzamide], the IC50 is < 20 nM with RS4;11 cells, < 20 nM with MV4;11 cells, < 10 nM in the test on Molt-4 cells and < 10 nM in test [1].

Take `CC1(C)CCC(c2ccc(Cl)cc2)=C(CN2CCN(c3ccc(C(=O)NS(=O)(=O)c4ccc(N[C@H](CCN5CCN(Cc6ccc7c(c6)CN(C6CCC(=O)NC6=O)C7=O)CC5)CSc5ccccc5)c(S(=O)(=O)C(F)(F)F)c4)cc3)CC2)C1` (stereo partly drawn) [BCL-03177, 4-(4-((4′-chloro-4,4-dimethyl-3,4,5,6-tetrahydro-[1,1′-biphenyl]-2-yl)methyl)piperazin-1-yl)-N-((4-(((2R)-4-(4-((2-(2,6-dioxopiperidin-3-yl)-1-oxoisoindolin-5-yl)methyl)piperazin-1-yl)-1-(phenylthio)butan-2-yl)amino)-3-((trifluoromethyl)sulfonyl)phenyl)sulfonyl)benzamide]: the IC50 in the test on RS4;11 cells was < 20 nM; in the test on MV4;11 cells, < 20 nM; with Molt-4 cells, < 10 nM; in test [1], < 10 nM.
